The first assay relates to Puccinia recondita. The assay is described as follows: Fungicidal activity against Puccinia recondita infected foliar spray based compound pre-treated first-leaf stage wheat plants assessed as wheat leaf rust disease control level at 2 ppm measured 10 days post fungal exposure relative to untreated control. Type of assay: functional.
`Clc1ccc(C2OCCc3c2noc3CBr)cc1` (stereo not drawn): the Activity is recorded as 50%.

In a further assay the test system is Puccinia recondita. The assay is described as follows: Fungicidal activity against Puccinia recondita infected foliar spray based compound pre-treated first-leaf stage wheat plants assessed as wheat leaf rust disease control level at 50 ppm measured 10 days post fungal exposure relative to untreated control. It is filed as functional.
With `Clc1ccc(C2OCCc3c2noc3CBr)cc1` (stereo not drawn), the Activity is given as 90%.

Another assay relates to Botrytis cinerea. The assay is described as follows: Fungicidal activity against Botryotinia fuckeliana infected foliar spray based compound pre-treated first-leaf stage cucumber plants assessed as cucumber gray mold disease control level at 250 ppm measured 4 to 5 days post fungal exposure relative to untreated control. It is filed as functional.
With `Clc1ccc(C2OCCc3c2noc3COC2CCCCO2)cc1` (stereo not drawn), the Activity was 0%.
The same measure, in the same setting: the value for `Clc1ccccc1C1OCCc2c1noc2CBr` (stereo not drawn) was 52%.
Same read-out and setting: the value for `CCON=Cc1onc2c1CCOC2c1ccccc1Cl` (mixture of isomers) was 5%; that for `Clc1ccccc1C1OCCc2c1noc2COC1CCCCO1` (stereo not drawn) was 0%.
Same read-out and setting: the same measure for `CCON=Cc1onc2c1CCOC2c1ccc(Cl)cc1` (mixture of isomers): 10%; for `CON=Cc1onc2c1CCOC2c1ccccc1Cl` (stereo not drawn): 0%.
Take `C=CCON=Cc1onc2c1CCOC2c1ccc(Cl)cc1` (mixture of isomers): the Activity amounted to 10%.
Regarding `ON=Cc1onc2c1CCOC2c1ccccc1Cl` (stereo not drawn), the Activity is 5%.
Regarding `O=Cc1onc2c1CCOC2c1ccccc1Cl` (stereo not drawn), the Activity came out at 0%.
As to `Clc1ccc(C2OCCc3c2noc3CBr)cc1` (stereo not drawn), the Activity is listed as 0%.
With `OCc1onc2c1CCOC2c1ccccc1Cl` (stereo not drawn), the Activity is 0%.
On the same count and under the same terms, the value for `OCc1onc2c1CCOC2c1ccc(Cl)cc1` (stereo not drawn) was 0%; that for `C=CCON=Cc1onc2c1CCOC2c1ccccc1Cl` (mixture of isomers) was 0%.
Still for that read-out and setting: the same measure for `ON=Cc1onc2c1CCOC2c1ccc(Cl)cc1` (mixture of isomers): 0%.
Same read-out and setting: the value for `CON=Cc1onc2c1CCOC2c1ccc(Cl)cc1` (mixture of isomers) was 28%.
With `O=Cc1onc2c1CCOC2c1ccc(Cl)cc1` (stereo not drawn), the Activity is recorded as 30%.

Another assay concerns Puccinia recondita. The assay is described as follows: Fungicidal activity against Puccinia recondita infected foliar spray based compound pre-treated first-leaf stage wheat plants assessed as wheat leaf rust disease control level at 250 ppm measured 10 days post fungal exposure relative to untreated control. It is filed as functional.
Take `Clc1ccc(C2OCCc3c2noc3COC2CCCCO2)cc1` (stereo not drawn): the Activity is 0%.
Same read-out and setting: the same measure for `Clc1ccccc1C1OCCc2c1noc2CBr` (stereo not drawn): 97%; for `CCON=Cc1onc2c1CCOC2c1ccccc1Cl` (mixture of isomers): 76%; for `Clc1ccccc1C1OCCc2c1noc2COC1CCCCO1` (stereo not drawn): 86%.
On the same count and under the same terms, the value for `CCON=Cc1onc2c1CCOC2c1ccc(Cl)cc1` (mixture of isomers) was 52%.
On to `CON=Cc1onc2c1CCOC2c1ccccc1Cl` (stereo not drawn), for which the Activity is listed as 0%.
On the same count and under the same terms, the same measure for `C=CCON=Cc1onc2c1CCOC2c1ccc(Cl)cc1` (mixture of isomers): 96%; for `ON=Cc1onc2c1CCOC2c1ccccc1Cl` (stereo not drawn): 0%.
Take `O=Cc1onc2c1CCOC2c1ccccc1Cl` (stereo not drawn): the Activity amounted to 53%.
Consider `Clc1ccc(C2OCCc3c2noc3CBr)cc1` (stereo not drawn), for which the Activity worked out at 100%.
Still for that read-out and setting: the same measure for `OCc1onc2c1CCOC2c1ccccc1Cl` (stereo not drawn): 10%; for `OCc1onc2c1CCOC2c1ccc(Cl)cc1` (stereo not drawn): 0%; for `C=CCON=Cc1onc2c1CCOC2c1ccccc1Cl` (mixture of isomers): 46%.
Same read-out and setting: the same measure for `ON=Cc1onc2c1CCOC2c1ccc(Cl)cc1` (mixture of isomers): 86%.
On to `CON=Cc1onc2c1CCOC2c1ccc(Cl)cc1` (mixture of isomers), for which the Activity amounted to 12%.
On the same count and under the same terms, the same measure for `O=Cc1onc2c1CCOC2c1ccc(Cl)cc1` (stereo not drawn): 0%.

The next assay has as its system Rhizoctonia solani. The assay is described as follows: Fungicidal activity against Rhizoctonia solani infected on foliar spray based compound pre-treated third-leaf stage rice plants assessed as rice sheath blight disease control level at 250 ppm measured 5 days post fungal exposure relative to untreated control. It is filed as functional.
Consider `Clc1ccc(C2OCCc3c2noc3COC2CCCCO2)cc1` (stereo not drawn), for which the Activity is listed as 0%.
Same read-out and setting: the same measure for `Clc1ccccc1C1OCCc2c1noc2CBr` (stereo not drawn): 41%; for `CCON=Cc1onc2c1CCOC2c1ccccc1Cl` (mixture of isomers): 64%.
Same read-out and setting: the same measure for `Clc1ccccc1C1OCCc2c1noc2COC1CCCCO1` (stereo not drawn): 47%.
Take `CCON=Cc1onc2c1CCOC2c1ccc(Cl)cc1` (mixture of isomers): the Activity is given as 55%.
Consider `CON=Cc1onc2c1CCOC2c1ccccc1Cl` (stereo not drawn), for which the Activity is reported as 29%.
In the case of `C=CCON=Cc1onc2c1CCOC2c1ccc(Cl)cc1` (mixture of isomers), the Activity is on record as 75%.
Take `ON=Cc1onc2c1CCOC2c1ccccc1Cl` (stereo not drawn): the Activity amounted to 52%.
As for `O=Cc1onc2c1CCOC2c1ccccc1Cl` (stereo not drawn), the Activity is 17%.
The same measure, in the same setting: the same measure for `Clc1ccc(C2OCCc3c2noc3CBr)cc1` (stereo not drawn): 0%.
For `OCc1onc2c1CCOC2c1ccccc1Cl` (stereo not drawn), the Activity is 0%.
On to `OCc1onc2c1CCOC2c1ccc(Cl)cc1` (stereo not drawn), for which the Activity worked out at 0%.
Same read-out and setting: the value for `C=CCON=Cc1onc2c1CCOC2c1ccccc1Cl` (mixture of isomers) was 17%; that for `ON=Cc1onc2c1CCOC2c1ccc(Cl)cc1` (mixture of isomers) was 45%; that for `CON=Cc1onc2c1CCOC2c1ccc(Cl)cc1` (mixture of isomers) was 65%.
Consider `O=Cc1onc2c1CCOC2c1ccc(Cl)cc1` (stereo not drawn), for which the Activity is 0%.

In the next assay the test system is Phytophthora infestans. The assay is described as follows: Fungicidal activity against Phytophthora infestans zoosporangia infected on foliar spray based compound pre-treated 14 days old tomato plants assessed as tomato late blight disease control level at 250 ppm measured 4 days post fungal exposure relative to untreated control. Type of assay: functional.
On to `Clc1ccc(C2OCCc3c2noc3COC2CCCCO2)cc1` (stereo not drawn), for which the Activity turned out to be 9%.
`Clc1ccccc1C1OCCc2c1noc2CBr` (stereo not drawn): the Activity was 7%.
Take `CCON=Cc1onc2c1CCOC2c1ccccc1Cl` (mixture of isomers): the Activity turned out to be 78%.
On the same count and under the same terms, the value for `Clc1ccccc1C1OCCc2c1noc2COC1CCCCO1` (stereo not drawn) was 0%; that for `CCON=Cc1onc2c1CCOC2c1ccc(Cl)cc1` (mixture of isomers) was 14%.
`CON=Cc1onc2c1CCOC2c1ccccc1Cl` (stereo not drawn): the Activity is 50%.
On the same count and under the same terms, the same measure for `C=CCON=Cc1onc2c1CCOC2c1ccc(Cl)cc1` (mixture of isomers): 7%.
On the same count and under the same terms, the same measure for `ON=Cc1onc2c1CCOC2c1ccccc1Cl` (stereo not drawn): 42%; for `O=Cc1onc2c1CCOC2c1ccccc1Cl` (stereo not drawn): 21%.
Consider `Clc1ccc(C2OCCc3c2noc3CBr)cc1` (stereo not drawn), for which the Activity is 22%.
On the same count and under the same terms, the same measure for `OCc1onc2c1CCOC2c1ccccc1Cl` (stereo not drawn): 0%.
Same read-out and setting: the same measure for `OCc1onc2c1CCOC2c1ccc(Cl)cc1` (stereo not drawn): 2%; for `C=CCON=Cc1onc2c1CCOC2c1ccccc1Cl` (mixture of isomers): 14%; for `ON=Cc1onc2c1CCOC2c1ccc(Cl)cc1` (mixture of isomers): 10%.
Still for that read-out and setting: the same measure for `CON=Cc1onc2c1CCOC2c1ccc(Cl)cc1` (mixture of isomers): 0%; for `O=Cc1onc2c1CCOC2c1ccc(Cl)cc1` (stereo not drawn): 19%.

Another assay deals with Puccinia recondita. The assay is described as follows: Fungicidal activity against Puccinia recondita infected foliar spray based compound pre-treated first-leaf stage wheat plants assessed as wheat leaf rust disease control level at 10 ppm measured 10 days post fungal exposure relative to untreated control. Type of assay: functional.
Consider `Clc1ccc(C2OCCc3c2noc3CBr)cc1` (stereo not drawn), for which the Activity was 53%.

The subject of another assay is Blumeria graminis. The assay is described as follows: Fungicidal activity against Blumeria graminis infected on foliar spray based compound pre-treated first-leaf stage 7 day old barley plants assessed as barley powdery mildew disease control level at 250 ppm measured 7 days post fungal exposure relative to untreated control. Type of assay: functional.
Regarding `Clc1ccc(C2OCCc3c2noc3COC2CCCCO2)cc1` (stereo not drawn), the Activity was 0%.
Still for that read-out and setting: the same measure for `Clc1ccccc1C1OCCc2c1noc2CBr` (stereo not drawn): 16%.
On the same count and under the same terms, the same measure for `CCON=Cc1onc2c1CCOC2c1ccccc1Cl` (mixture of isomers): 91%.
The same measure, in the same setting: the value for `Clc1ccccc1C1OCCc2c1noc2COC1CCCCO1` (stereo not drawn) was 16%; that for `CCON=Cc1onc2c1CCOC2c1ccc(Cl)cc1` (mixture of isomers) was 81%; that for `CON=Cc1onc2c1CCOC2c1ccccc1Cl` (stereo not drawn) was 41%.
As for `C=CCON=Cc1onc2c1CCOC2c1ccc(Cl)cc1` (mixture of isomers), the Activity is 100%.
The same measure, in the same setting: the value for `ON=Cc1onc2c1CCOC2c1ccccc1Cl` (stereo not drawn) was 0%; that for `O=Cc1onc2c1CCOC2c1ccccc1Cl` (stereo not drawn) was 83%; that for `Clc1ccc(C2OCCc3c2noc3CBr)cc1` (stereo not drawn) was 50%.
On the same count and under the same terms, the same measure for `OCc1onc2c1CCOC2c1ccccc1Cl` (stereo not drawn): 0%; for `OCc1onc2c1CCOC2c1ccc(Cl)cc1` (stereo not drawn): 3%; for `C=CCON=Cc1onc2c1CCOC2c1ccccc1Cl` (mixture of isomers): 80%.
As for `ON=Cc1onc2c1CCOC2c1ccc(Cl)cc1` (mixture of isomers), the Activity was determined as 0%.
Same read-out and setting: the value for `CON=Cc1onc2c1CCOC2c1ccc(Cl)cc1` (mixture of isomers) was 96%; that for `O=Cc1onc2c1CCOC2c1ccc(Cl)cc1` (stereo not drawn) was 0%.
